# Results published in US20240409534A1, “CRYSTAL FORM OF METHYLPYRAZOLE-SUBSTITUTED PYRIDOIMIDAZOLE COMPOUND AND PREPARATION METHOD THEREFOR” (priority 2021, published 2024).
# Experiments:
# [1] = test system: Renca subcutaneous xenograft tumor; assay: In vivo antitumor activity, Renca subcutaneous xenograft tumor model; design: species or system Balb/c mice
# Procedure: Female Balb/c mice (6 to 8 weeks old)
# Mouse renal carcinoma Renca cells (ATCC-CRL-2947) were adherent cultured in vitro under the conditions of RPMI 1640 Medium with 10% fetal bovine serum, 0.1 mM non-essential amino acids, 1 mM sodium pyruvate, 2 mM glutamine, 100 U/mL penicillin and 100 µg/mL streptomycin, and cultured in a 37° C., 5% CO2 incubator. Routine passage was performed twice a week. When the cell saturation density was 80% to 90% and the number of cells reached the required level, the cells were collected, counted, and inoculated.
# 0.1 mL (1×10^5) Renca cells were subcutaneously inoculated on the dorsal side of the right upper limb of each mouse, and grouping and administration were initiated when the average tumor volume reached approximately 50 to 80 mm^3.
# Tumor diameters were measured twice a week with vernier calipers. […]
# The antitumor efficacy of compounds was evaluated by TGI (%) or relative tumor proliferation rate T/C (%). […] Relative tumor volume (RTV) was calculated according to the results of tumor measurement, and the formula was RTV=Vt/V0, where V0 was the tumor volume measured at the time of grouping and administration (i.e. D0), Vt was the tumor volume of the corresponding mouse in one measurement, and the TRTV and CRTV data were collected on the same day. […]
# [2] = test system: Ba/F3-TEL-FLT4 (VEGFR3); assay: In vitro proliferation of BaF3 cell line, Ba/F3-TEL-FLT4; format: cell-based
# Procedure: (§1) The mother solution was prepared into a total of 9 concentration gradients (10.0000 mM, 2.5000 mM, 0.6250 mM, 0.1563 mM, 0.0391 mM, 0.0098 mM, 0.0024 mM, 0.0006 mM and 0.0002 mM) in a 4-fold dilution and stored in a 96-well plate (Beaver, Suzhou), while the same volume of DMSO solvent was used as a negative control. • 1. Cell suspension in logarithmic growth phase was taken and inoculated in a white 96-well cell culture plate (Corning 3917, NY, USA) with a volume of 95 μL per well (2000 cells/well). • 2. Diluted medium-compound mixture was added in a volume of 5 μL per well, respectively, and the final concentration of DMSO in Ba/F3-TEL-FLT1 (VEGFR1), Ba/F3-TEL-FLT4 (VEGFR3) and Ba/F3-TEL-VEGFR2 cells was 0.1%.
# (§2) • 3. The plate was incubated in a 37° C., 5% CO2 incubator for 72 h. • 4. The proliferation inhibitory activity and data analysis of the compound by CellTiter-Glo method were the same as in Experimental embodiment 1.
# [3] = Stability test (high temperature, high humidity, light, accelerated, long-term); format: physicochemical
# Text: For tests under high temperature, high humidity and light conditions, samples were put into an open clean weighing bottle, spread into a thin layer of 5 mm or less, and 3 samples (1.1 g/sample) were weighed in parallel at each condition time point. The prepared samples were placed under each condition, and sampled for analysis at each time point.
# For accelerated stability and long-term stability tests, samples were packed into a double-layer pharmaceutical low-density polyethylene bag. Each layer of the pharmaceutical low-density polyethylene bag was sealed with buckles, and then the double-layer low-density polyethylene bag was heat-sealed in an aluminum foil bag. 6 samples (1.1 g/sample) were weighed in parallel at each condition time point. The prepared samples were placed under each condition, and sampled for analysis at each time point.
# [4] = test system: Ba/F3-TEL-FLT1 (VEGFR1); assay: In vitro proliferation of BaF3 cell line, Ba/F3-TEL-FLT1; format: cell-based
# Procedure: as §1, §2
# [5] = Mus musculus, BaF3, 72 h, read-out: Relative IC50
# [6] = Accelerated stability test (40° C./relative humidity: 75%), Day 0
# [7] = Accelerated stability test (40° C./relative humidity: 75%), Month 1
# [8] = Accelerated stability test (40° C./relative humidity: 75%), Month 2
# [9] = Accelerated stability test (40° C./relative humidity: 75%), Month 3
# [10] = Accelerated stability test (40° C./relative humidity: 75%), Month 6
# [11] = High humidity (25° C./relative humidity: 92.5%, open), Day 5
# [12] = High humidity (25° C./relative humidity: 92.5%, open), Day 10
# [13] = High humidity (25° C./relative humidity: 92.5%, open), Day 30
# [14] = High temperature (60° C., open), Day 5
# [15] = High temperature (60° C., open), Day 10
# [16] = High temperature (60° C., open), Day 30
# [17] = Light (Total illumination: 1.2 × 10^6 Lux · hr/NUV: 200 w · hr/m^2, open), Day 5
# [18] = Light (Total illumination: 1.2 × 10^6 Lux · hr/NUV: 200 w · hr/m^2, open), Day 10
# [19] = Long-term stability test (25° C./relative humidity: 60%), Day 0
# [20] = Long-term stability test (25° C./relative humidity: 60%), Month 3
# [21] = Long-term stability test (25° C./relative humidity: 60%), Month 6
# [22] = Long-term stability test (25° C./relative humidity: 60%), Month 9
structure (smiles),measurement,setting,value
CS(=O)(=O)O.Cn1cc(-c2ccn3c(-c4cc(NS(C)(=O)=O)nc(-c5ccc(F)cc5F)c4)cnc3c2)cn1,effect on tumor growth versus solvent control group,"[1]; Renca model, 100 mg/kg, p=0.031",significant inhibitory effect on tumor growth
same,TGI % (last administration on day 19),"[1]; Renca xenograft tumor model, 100 mg/kg QD, female Balb/c mice",72%
same,Maximum inhibition,[2]; 72 h,100%
same,Minimum inhibition,[2]; 72 h,−2.54%
same,IC50,[2]; [5],395 nM
same,Content,[3]; [6],97.9%
same,Crystal form (XRPD),[3]; [6],Crystal form A
same,Total impurities,[3]; [6],1.2%
same,Content,[3]; [7],98.0%
same,Crystal form (XRPD),[3]; [7],Crystal form A
same,Total impurities,[3]; [7],1.3%
same,Content,[3]; [8],97.6%
same,Crystal form (XRPD),[3]; [8],Crystal form A
same,Total impurities,[3]; [8],1.2%
same,Content,[3]; [9],98.0%
same,Crystal form (XRPD),[3]; [9],Crystal form A
same,Total impurities,[3]; [9],1.2%
same,Content,[3]; [10],98.5%
same,Crystal form (XRPD),[3]; [10],Crystal form A
same,Total impurities,[3]; [10],1.2%
same,Content,[3]; Day 0,97.9%
same,Crystal form (XRPD),[3]; Day 0,Crystal form A
same,Total impurities,[3]; Day 0,1.2%
same,Content,[3]; [11],96.8%
same,Crystal form (XRPD),[3]; [11],Crystal form A
same,Total impurities,[3]; [11],1.2%
same,Content,[3]; [12],98.8%
same,Crystal form (XRPD),[3]; [12],Crystal form A
same,Total impurities,[3]; [12],1.2%
same,Content,[3]; [13],98.0%
same,Crystal form (XRPD),[3]; [13],Crystal form A
same,Total impurities,[3]; [13],1.3%
same,Content,[3]; [14],97.0%
same,Crystal form (XRPD),[3]; [14],Crystal form A
same,Total impurities,[3]; [14],1.3%
same,Content,[3]; [15],98.5%
same,Crystal form (XRPD),[3]; [15],Crystal form A
same,Total impurities,[3]; [15],1.1%
same,Content,[3]; [16],98.2%
same,Crystal form (XRPD),[3]; [16],Crystal form A
same,Total impurities,[3]; [16],1.2%
same,Content,[3]; [17],98.4%
same,Crystal form (XRPD),[3]; [17],Crystal form A
same,Total impurities,[3]; [17],1.2%
same,Content,[3]; [18],97.7%
same,Crystal form (XRPD),[3]; [18],Crystal form A
same,Total impurities,[3]; [18],1.1%
same,Content,[3]; [19],97.9%
same,Crystal form (XRPD),[3]; [19],Crystal form A
same,Total impurities,[3]; [19],1.2%
same,Content,[3]; [20],98.3%
same,Crystal form (XRPD),[3]; [20],Crystal form A
same,Total impurities,[3]; [20],1.2%
same,Content,[3]; [21],98.6%
same,Crystal form (XRPD),[3]; [21],Crystal form A
same,Total impurities,[3]; [21],1.2%
same,Content,[3]; [22],97.6%
same,Crystal form (XRPD),[3]; [22],Crystal form A
same,Total impurities,[3]; [22],1.2%
same,Maximum inhibition,[4]; 72 h,99.34%
same,Minimum inhibition,[4]; 72 h,−12.05%
same,IC50,[4]; [5],46 nM
